Measurements as given in paper PMC11995216, “End-to-End Backbone Cyclization Enhances Passive Permeability of bRo5 Oligomeric Depsipeptides with Nonlinear Size Dependence” (ACS Medicinal Chemistry Letters, 2025).
“And” between values parts separate entries of the source, which are not always exact repeats. Identical values can stand only once. Like-named read-outs stand apart in the source and are kept apart here.

Legend:
[1] = UV detection
PAMPA [2] = conditions: UV detection
PAMPA [3] = conditions: UV detection, initial concentration 500 uM
[4] = PAMPA, 500 uM
[5] = initial concentration 500 uM, standard curve, UV detection
[6] = calculated using Supplement Equation 1, UV detection
in vitro = conditions: PAMPA, Papp
[7] = Papp (x 10^-6 cm/s) / experiment 1
[8] = Papp (x 10^-6 cm/s) / experiment 2
[9] = Papp (x 10^-6 cm/s) / experiment 3
[10] = Papp (x 10^-6 cm/s) / experiment 4
[11] = Papp (x 10^-6 cm/s) / experiment 5
[12] = Papp (x 10^-6 cm/s) / experiment 6
[13] = Papp (x 10^-6 cm/s) / experiment 7
[14] = Papp (x 10^-6 cm/s) / experiment 8
[15] = Papp (x 10^-6 cm/s) / experiment 9
[16] = Papp (x 10^-6 cm/s) / experiment 10
[17] = Acceptor Concentration (uM) / experiment 1
[18] = Acceptor Concentration (uM) / experiment 2
[19] = Acceptor Concentration (uM) / experiment 3
[20] = Acceptor Concentration (uM) / experiment 4
[21] = Acceptor Concentration (uM) / experiment 5
[22] = Acceptor Concentration (uM) / experiment 6
[23] = Acceptor Concentration (uM) / experiment 7
[24] = Acceptor Concentration (uM) / experiment 8
[25] = Acceptor Concentration (uM) / experiment 9
[26] = Acceptor Concentration (uM) / experiment 10

| % recovery ([1]; Well 1 / %R, Well 1) | % recovery ([1]; Well 2 / %R, Well 2) | % recovery ([1]; Well 3 / %R, Well 3) | % recovery ([1]; Well 4 / %R, Well 4) | % recovery ([1]; Well 5 / %R, Well 5) | Papp (PAMPA [2]; [7]) [×10⁻⁶ cm/s] | Papp (PAMPA [2]; [8]) [×10⁻⁶ cm/s] | Papp (PAMPA [2]; [9]) [×10⁻⁶ cm/s] | Papp (PAMPA [2]; [10]) [×10⁻⁶ cm/s] | Papp (PAMPA [2]; [11]) [×10⁻⁶ cm/s] | Papp (PAMPA [2]; [12]) [×10⁻⁶ cm/s] | Papp (PAMPA [2]; [13]) [×10⁻⁶ cm/s] | Papp (PAMPA [2]; [14]) [×10⁻⁶ cm/s] | Papp (PAMPA [2]; [15]) [×10⁻⁶ cm/s] | Papp (PAMPA [2]; [16]) [×10⁻⁶ cm/s] | SMILES | Acceptor Concentration (PAMPA [3]; [17]) [µM] | Acceptor Concentration (PAMPA [3]; [18]) [µM] | Acceptor Concentration (PAMPA [3]; [19]) [µM] | Acceptor Concentration (PAMPA [3]; [20]) [µM] | Acceptor Concentration (PAMPA [3]; [21]) [µM] | also measured |
| --- | --- | --- | --- | --- | --- | --- | --- | --- | --- | --- | --- | --- | --- | --- | --- | --- | --- | --- | --- | --- | --- |
| 87% and 98% | 96% and 95% | 97% and 86% | 91% and 84% | 89% and 95% | 4.67 | 4.06 | 3.27 | 4.23 | 3.87 | 4.51 | 4.1 | 4.51 | 5.45 | 4.19 | CCCCC[C@H](OC(=O)[C@@H](C)N(C)C(=O)OC(C)(C)C)C(=O)OCc1ccccc1 [Compound L1.1] | 97.9 | 95.4 | 79.7 | 94.3 | 84.7 | Acceptor Concentration (PAMPA [3]; [22]): 107 µM; Acceptor Concentration (PAMPA [3]; [23]): 95.8 µM; Acceptor Concentration (PAMPA [3]; [24]): 92.9 µM; Acceptor Concentration (PAMPA [3]; [25]): 107 µM; Acceptor Concentration (PAMPA [3]; [26]): 97.4 µM; Acceptor Concentration, Ave [4]: 95.2 µM; Δ % diffusion [4]: ↑22%; donor concentration after incubation ([5]; Well 1 / [donor], Well 1): 339 µM and 383 µM; donor concentration after incubation ([5]; Well 2 / [donor], Well 2): 384 µM and 381 µM; donor concentration after incubation ([5]; Well 3 / [donor], Well 3): 406 µM and 335 µM; donor concentration after incubation ([5]; Well 4 / [donor], Well 4): 363 µM and 315 µM; donor concentration after incubation ([5]; Well 5 / [donor], Well 5): 360 µM and 379 µM; %T ([6]; Well 1 / %T, Well 1): 0.56% and 0.55%; %T ([6]; Well 2 / %T, Well 2): 0.51%; %T ([6]; Well 3 / %T, Well 3): 0.44% and 0.55%; %T ([6]; Well 4 / %T, Well 4): 0.52% and 0.62%; %T ([6]; Well 5 / %T, Well 5): 0.49% and 0.52%; Papp at 500 uM (in vitro): 4.3 ± 0.6 ×10⁻⁶ cm/s |
| 86% and 89% | 93% and 92% | 91% and 85% | 86% and 84% | 85% and 86% | 3.86 | 3.52 | 3.52 | 3.49 | 3.18 | 3.34 | 3.62 | 3.46 | 3.83 | 3.57 | CCCCC[C@H](OC(=O)[C@@H](C)N(C)C(=O)[C@H](CCCCC)OC(=O)[C@@H](C)N(C)C(=O)[C@H](CCCCC)OC(=O)[C@@H](C)N(C)C(=O)OC(C)(C)C)C(=O)OCc1ccccc1 [Compound L1.3] | 84.1 | 80.7 | 74.5 | 72.5 | 68.1 | Acceptor Concentration (PAMPA [3]; [22]): 71.8 µM; Acceptor Concentration (PAMPA [3]; [23]): 84 µM; Acceptor Concentration (PAMPA [3]; [24]): 79 µM; Acceptor Concentration (PAMPA [3]; [25]): 81.4 µM; Acceptor Concentration (PAMPA [3]; [26]): 75.6 µM; LogPapp [4]: -5.45 ± 0.02; Δ % diffusion [4]: ↑3%; donor concentration after incubation ([5]; Well 1 / [donor], Well 1): 358 µM; donor concentration after incubation ([5]; Well 2 / [donor], Well 2): 382 µM and 379 µM; donor concentration after incubation ([5]; Well 3 / [donor], Well 3): 378 µM and 351 µM; donor concentration after incubation ([5]; Well 4 / [donor], Well 4): 350 µM and 346 µM; donor concentration after incubation ([5]; Well 5 / [donor], Well 5): 351 µM and 360 µM; %T ([6]; Well 1 / %T, Well 1): 0.44% and 0.49%; %T ([6]; Well 2 / %T, Well 2): 0.47% and 0.46%; %T ([6]; Well 3 / %T, Well 3): 0.46%; %T ([6]; Well 4 / %T, Well 4): 0.49% and 0.46%; %T ([6]; Well 5 / %T, Well 5): 0.47% and 0.43%; Papp at 500 uM (in vitro): 3.54 ± 0.2 ×10⁻⁶ cm/s |
